Experimental data reported in US20250387331A1, “PROSTAGLANDIN ANALOGS AND METHODS FOR SUSTAINED GLAUCOMA MANAGEMENT” (Peregrine Ophthalmic PTE LTD, priority 2024, published 2025).

Experiments:
[1] = tested on: rabbit eye; details: in vivo
Experimental: OCT macula were captured at baseline, at week 1, and at 4 week intervals thereafter.
P values were calculated using a 2 tailed t-test.

[2] = tested on: rabbit eye; assay: IOP after suprachoroidal liposomal latanoprost or daily topical latanoprost (Example 2); assay type: in vivo, Dutch-Belt rabbits; details: daily eye drops 0.005% for two weeks
Experimental: A suprachoroidal injector (SupraMedical, Israel) was used that has a 30-gauge needle attached to an extension tubing connected to a 1 ml syringe. The length of the injector is adjusted by inputting readings of scleral thickness combined with a correction factor, supplied on a calibration table from the manufacturer. The scleral thickness was determined by ultrasound bio-microscopy (UBM). After the depth dial was set to the correct position, the plunger of the injector and the syringe were depressed simultaneously. Injections were delivered over 5-10 seconds. After the drug formulation or control was delivered, the plunger was released, and the injector gradually removed.
Rabbits receiving suprachoroidal injection had their scleral thickness measured with Optovue RTVue OCT. The thickness of the sclera was measured at 3 mm posterior to the corneoscleral junction. An average of three readings were taken to determine the mean scleral thickness. The length of the needle on the injector was subsequently calibrated by adding 300 μm to the mean scleral thickness. […]
Four Dutch-Belt rabbits (n=8 eyes) were used in this study. Baseline IOP was measured using a calibrated Tonopen XL® (Reichert Ophthalmic Instruments, Depew, NY). […] Animals were handled consistently to ensure stable IOP readings. […]
Three readings were taken for each eye and an average obtained. […]

What does the source list for CC(C)OC(=O)CCC/C=C\C[C@@H]1[C@@H](CC[C@@H](O)CCc2ccccc2)[C@H](O)C[C@@H]1O [Topical latanoprost, latanoprost]?
Mean retinal thickness [1]: 131.44 μm; maximum decrease in IOP [2]: 38%
